Assays:
human mAChR M1 [1] = biological target: T1, human mAChR M1 (Homo sapiens, UniProt P11229); assay: mAChR M1 cell-based functional assay (calcium mobilization), PAM mode: increase in the EC20 acetylcholine response
T1 sequence (P11229 1-460): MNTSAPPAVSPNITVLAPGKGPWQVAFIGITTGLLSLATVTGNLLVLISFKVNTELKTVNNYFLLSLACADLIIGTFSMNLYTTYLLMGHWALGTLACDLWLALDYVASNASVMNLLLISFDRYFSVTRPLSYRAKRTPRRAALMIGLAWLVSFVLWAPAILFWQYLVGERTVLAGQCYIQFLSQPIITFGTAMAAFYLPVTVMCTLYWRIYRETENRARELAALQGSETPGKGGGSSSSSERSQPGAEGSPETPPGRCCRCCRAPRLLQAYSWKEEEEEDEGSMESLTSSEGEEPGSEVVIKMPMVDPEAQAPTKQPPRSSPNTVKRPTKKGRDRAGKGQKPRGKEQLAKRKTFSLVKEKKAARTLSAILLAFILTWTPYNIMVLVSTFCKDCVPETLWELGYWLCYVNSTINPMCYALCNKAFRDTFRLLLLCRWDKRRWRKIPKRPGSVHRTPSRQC
Outline: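 CHO-K1 cells stably expressing hM1, Fluo-4 loaded, read by FDSS calcium flux at 1 Hz. Compound (11-point 1:3 CRC) added at 4 s, EC20 acetylcholine at 144 s, EC80 at 230 s. PAM activity taken as concentration-dependent increase in EC20 ACh response, fitted by four-parameter logistic for EC50/Emax.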

human mAChR M1 [2] = biological target: T1, human mAChR M1; assay: mAChR M1 cell-based functional assay (calcium mobilization), agonist mode: compound alone, Emax relative to acetylcholine maximum; conditions: for EC50 / Agonist Activity Human M1 EC50: human mAChR M1; for Emax: relative to the maximum for acetylcholine
Outline: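 CHO-K1 cells stably expressing hM1 were loaded with Fluo-4 AM, and calcium flux was read as fluorescence ratio. Compound was added alone from an 11-point 1:3 curve, and the agonist response was fitted with a four-parameter logistic. Emax is expressed relative to the acetylcholine maximum.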

[2H]C([2H])([2H])Oc1ccc(-c2cc(F)c(CN3C(=O)c4cccnc4C3([2H])[2H])c(F)c2)c2cn(C([2H])([2H])[2H])nc12 [Compound 94, 6-(2,6-difluoro-4-(7-(methoxy-d3)-2-(methyl-d3)-2H-indazol-4-yl)benzyl)-6,7-dihydro-5H-pyrrolo[3,4-b]pyridin-5-one-7,7-d2]
EC50 (human mAChR M1 [1]): 139 nM | Emax (human mAChR M1 [1]): 76% | EC50 (human mAChR M1 [2]): 3540 nM | Emax (human mAChR M1 [2]): 19%

[2H]C([2H])([2H])Oc1ccc(-c2cc(F)c(CN3C(=O)c4cccnc4C3([2H])[2H])c(F)c2)c2cnn(C([2H])([2H])[2H])c12 [Compound 95, 6-(2,6-difluoro-4-(7-(methoxy-d3)-1-(methyl-d3)-1H-indazol-4-yl)benzyl)-6,7-dihydro-5H-pyrrolo[3,4-b]pyridin-5-one-7,7-d2]
EC50 (human mAChR M1 [1]): 1400 nM | Emax (human mAChR M1 [1]): 72% | Agonist Activity Human M1 EC50 (human mAChR M1 [2]): Inactive | Emax (human mAChR M1 [2]): 3%

[2H]C1([2H])c2ncccc2C(=O)N1Cc1c(F)cc(-c2ccc(OCC)c3nn(C)cc23)cc1F [Compound 96, 6-(4-(7-ethoxy-2-methyl-2H-indazol-4-yl)-2,6-difluorobenzyl)-6,7-dihydro-5H-pyrrolo[3,4-b]pyridin-5-one-7,7-d2]
EC50 (human mAChR M1 [1]): 211 nM | Emax (human mAChR M1 [1]): 80% | EC50 (human mAChR M1 [2]): 7520 nM | Emax (human mAChR M1 [2]): 26%

[2H]C1([2H])c2ncccc2C(=O)N1Cc1c(F)cc(-c2ccc(OCC)c3nn(C([2H])([2H])[2H])cc23)cc1F [Compound 97, 6-(4-(7-ethoxy-2-(methyl-d3)-2H-indazol-4-yl)-2,6-difluorobenzyl)-6,7-dihydro-5H-pyrrolo[3,4-b]pyridin-5-one-7,7-d2]
EC50 (human mAChR M1 [1]): 164 nM | Emax (human mAChR M1 [1]): 88% | EC50 (human mAChR M1 [2]): 5940 nM | Emax (human mAChR M1 [2]): 25%

[2H]C1([2H])c2ncccc2C(=O)N1Cc1c(F)cc(-c2ccc(OC(C)C)c3nn(C)cc23)cc1F [Compound 98, 6-(2,6-difluoro-4-(7-isopropoxy-2-methyl-2H-indazol-4-yl)benzyl)-6,7-dihydro-5H-pyrrolo[3,4-b]pyridin-5-one-7,7-d2]
EC50 (human mAChR M1 [1]): 286 nM | Emax (human mAChR M1 [1]): 76% | EC50 (human mAChR M1 [2]): 8390 nM | Emax (human mAChR M1 [2]): 21%

[2H]C1([2H])c2ncccc2C(=O)N1Cc1c(F)cc(-c2ccc(OC(C)C)c3nn(C([2H])([2H])[2H])cc23)cc1F [Compound 99, 6-(2,6-difluoro-4-(7-isopropoxy-2-(methyl-d3)-2H-indazol-4-yl)benzyl)-6,7-dihydro-5H-pyrrolo[3,4-b]pyridin-5-one-7,7-d2]
EC50 (human mAChR M1 [1]): 285 nM | Emax (human mAChR M1 [1]): 83% | EC50 (human mAChR M1 [2]): 5800 nM | Emax (human mAChR M1 [2]): 25%

[2H]C1([2H])c2ncccc2C(=O)N1Cc1c(F)cc(-c2ccc3nn(C([2H])([2H])[2H])cc3c2)cc1F [Compound 100, 6-(2,6-difluoro-4-(2-(methyl-d3)-2H-indazol-5-yl)benzyl)-6,7-dihydro-5H-pyrrolo[3,4-b]pyridin-5-one-7,7-d2]
EC50 (human mAChR M1 [1]): 214 nM | Emax (human mAChR M1 [1]): 85% | Agonist Activity Human M1 EC50 (human mAChR M1 [2]): Inactive | Emax (human mAChR M1 [2]): 6%

[2H]C1([2H])c2ncccc2C(=O)N1Cc1c(F)cc(-c2ccc3c(cnn3C([2H])([2H])[2H])c2)cc1F [Compound 101, 6-(2,6-difluoro-4-(1-(methyl-d3)-1H-indazol-5-yl)benzyl)-6,7-dihydro-5H-pyrrolo[3,4-b]pyridin-5-one-7,7-d2]
EC50 (human mAChR M1 [1]): 1410 nM | Emax (human mAChR M1 [1]): 75% | Agonist Activity Human M1 EC50 (human mAChR M1 [2]): Inactive | Emax (human mAChR M1 [2]): 3%

[2H]C1([2H])c2ncccc2C(=O)N1Cc1c(F)cc(-c2ccc(OC(F)F)c3nn(C)cc23)cc1F [Compound 102, 6-(4-(7-(difluoromethoxy)-2-methyl-2H-indazol-4-yl)-2,6-difluorobenzyl)-6,7-dihydro-5H-pyrrolo[3,4-b]pyridin-5-one-7,7-d2]
EC50 (human mAChR M1 [1]): 469 nM | Emax (human mAChR M1 [1]): 77% | Agonist Activity Human M1 EC50 (human mAChR M1 [2]): Inactive | Emax (human mAChR M1 [2]): 9%

[2H]C1([2H])c2ncccc2C(=O)N1Cc1c(F)cc(-c2ccc(OC(F)(F)F)c3nn(C)cc23)cc1F [Compound 103, 6-(2,6-difluoro-4-(2-methyl-7-(trifluoromethoxy)-2H-indazol-4-yl)benzyl)-6,7-dihydro-5H-pyrrolo[3,4-b]pyridin-5-one-7,7-d2]
EC50 (human mAChR M1 [1]): 1550 nM | Emax (human mAChR M1 [1]): 73% | Agonist Activity Human M1 EC50 (human mAChR M1 [2]): Inactive | Emax (human mAChR M1 [2]): 2%

[2H]C1([2H])c2ncccc2C(=O)N1Cc1c(F)cc(-c2ccc(OC(F)(F)F)c3nn(C([2H])([2H])[2H])cc23)cc1F [Compound 104, 6-(2,6-difluoro-4-(2-(methyl-d3)-7-(trifluoromethoxy)-2H-indazol-4-yl)benzyl)-6,7-dihydro-5H-pyrrolo[3,4-b]pyridin-5-one-7,7-d2]
EC50 (human mAChR M1 [1]): 1170 nM | Emax (human mAChR M1 [1]): 69% | Agonist Activity Human M1 EC50 (human mAChR M1 [2]): Inactive | Emax (human mAChR M1 [2]): 2%

[2H]C1([2H])c2ncccc2C(=O)N1Cc1c(F)cc(-c2cc(F)c(F)c3nn(C)cc23)cc1F [Compound 105, 6-(4-(6,7-difluoro-2-methyl-2H-indazol-4-yl)-2,6-difluorobenzyl)-6,7-dihydro-5H-pyrrolo[3,4-b]pyridin-5-one-7,7-d2]
EC50 (human mAChR M1 [1]): 195 nM | Emax (human mAChR M1 [1]): 27% | Agonist Activity Human M1 EC50 (human mAChR M1 [2]): Inactive | Emax (human mAChR M1 [2]): 2%

[2H]C1([2H])c2ncccc2C(=O)N1Cc1c(F)cc(-c2cc(F)c(F)c3nn(C([2H])([2H])[2H])cc23)cc1F [Compound 106, 6-(4-(6,7-difluoro-2-(methyl-d3)-2H-indazol-4-yl)-2,6-difluorobenzyl)-6,7-dihydro-5H-pyrrolo[3,4-b]pyridin-5-one-7,7-d2]
EC50 (human mAChR M1 [1]): 140 nM | Emax (human mAChR M1 [1]): 30% | Agonist Activity Human M1 EC50 (human mAChR M1 [2]): Inactive | Emax (human mAChR M1 [2]): 2%

[2H]C([2H])([2H])Oc1ccc(-c2ccc(CN3C(=O)c4cccnc4C3([2H])[2H])c(F)c2)c2cn(C)nc12 [Compound 107, 6-(2-fluoro-4-(7-(methoxy-d3)-2-methyl-2H-indazol-4-yl)benzyl)-6,7-dihydro-5H-pyrrolo[3,4-b]pyridin-5-one-7,7-d2]
EC50 (human mAChR M1 [1]): 227 nM | Emax (human mAChR M1 [1]): 74% | EC50 (human mAChR M1 [2]): 5460 nM | Emax (human mAChR M1 [2]): 16%

[2H]C1([2H])c2ncccc2C(=O)N1Cc1ccc(-c2ccc(OCC)c3nn(C)cc23)cc1F [Compound 108, 6-(4-(7-ethoxy-2-methyl-2H-indazol-4-yl)-2-fluorobenzyl)-6,7-dihydro-5H-pyrrolo[3,4-b]pyridin-5-one-7,7-d2]
EC50 (human mAChR M1 [1]): 381 nM | Emax (human mAChR M1 [1]): 74% | Agonist Activity Human M1 EC50 (human mAChR M1 [2]): Inactive | Emax (human mAChR M1 [2]): 8%

[2H]C1([2H])c2ncccc2C(=O)N1Cc1ccc(-c2ccc(OC(C)C)c3nn(C)cc23)cc1F [Compound 109, 6-(2-fluoro-4-(7-isopropoxy-2-methyl-2H-indazol-4-yl)benzyl)-6,7-dihydro-5H-pyrrolo[3,4-b]pyridin-5-one-7,7-d2]
EC50 (human mAChR M1 [1]): 167 nM | Emax (human mAChR M1 [1]): 73% | EC50 (human mAChR M1 [2]): 5430 nM | Emax (human mAChR M1 [2]): 17%

[2H]C1([2H])c2ncccc2C(=O)N1Cc1ccc(-c2ccc(OC(F)(F)F)c3nn(C)cc23)cc1F [Compound 110, 6-(2-fluoro-4-(2-methyl-7-(trifluoromethoxy)-2H-indazol-4-yl)benzyl)-6,7-dihydro-5H-pyrrolo[3,4-b]pyridin-5-one-7,7-d2]
EC50 (human mAChR M1 [1]): 1440 nM | Emax (human mAChR M1 [1]): 71% | Agonist Activity Human M1 EC50 (human mAChR M1 [2]): Inactive | Emax (human mAChR M1 [2]): 4%

[2H]C([2H])([2H])Oc1cnc2c(c1)C(=O)N(Cc1ccc(-c3ccc4nn(C)cc4c3)cc1F)C2([2H])[2H] [Compound 111, 6-(2-fluoro-4-(2-methyl-2H-indazol-5-yl)benzyl)-3-(methoxy-d3)-6,7-dihydro-5H-pyrrolo[3,4-b]pyridin-5-one-7,7-d2]
EC50 (human mAChR M1 [1]): 161 nM | Emax (human mAChR M1 [1]): 65% | Agonist Activity Human M1 EC50 (human mAChR M1 [2]): Inactive | Emax (human mAChR M1 [2]): 2%

[2H]C([2H])([2H])Oc1cnc2c(c1)C(=O)N(Cc1c(F)cc(-c3ccc4nn(C)cc4c3)cc1F)C2([2H])[2H] [Compound 112, 6-(2,6-difluoro-4-(2-methyl-2H-indazol-5-yl)benzyl)-3-(methoxy-d3)-6,7-dihydro-5H-pyrrolo[3,4-b]pyridin-5-one-7,7-d2]
EC50 (human mAChR M1 [1]): 76 nM | Emax (human mAChR M1 [1]): 63% | Agonist Activity Human M1 EC50 (human mAChR M1 [2]): Inactive | Emax (human mAChR M1 [2]): 2%

[2H]C1([2H])c2ncccc2C(=O)N1Cc1c(F)cc(-c2ccc(OCCOC)c3nn(C)cc23)cc1F [Compound 113, 6-(2,6-difluoro-4-(7-(2-methoxyethoxy)-2-methyl-2H-indazol-4-yl)benzyl)-6,7-dihydro-5H-pyrrolo[3,4-b]pyridin-5-one-7,7-d2]
EC50 (human mAChR M1 [1]): 188 nM | Emax (human mAChR M1 [1]): 75% | EC50 (human mAChR M1 [2]): 5870 nM | Emax (human mAChR M1 [2]): 41%

[2H]C1([2H])c2ncccc2C(=O)N1Cc1c(F)cc(-c2ccc(OCCOC)c3nn(C([2H])([2H])[2H])cc23)cc1F [Compound 114, 6-(2,6-difluoro-4-(7-(2-methoxyethoxy)-2-(methyl-d3)-2H-indazol-4-yl)benzyl)-6,7-dihydro-5H-pyrrolo[3,4-b]pyridin-5-one-7,7-d2]
EC50 (human mAChR M1 [1]): 162 nM | Emax (human mAChR M1 [1]): 77% | EC50 (human mAChR M1 [2]): 8010 nM | Emax (human mAChR M1 [2]): 43%
